Laboratory results from publication PMC12364333, “Degradation of catecholate, hydroxamate, and carboxylate model siderophores by extracellular enzymes” (PLOS One, 2025).

Tested on: T1, phenol oxidase (a tyrosinase)
T1 construct: gene PPO3
Assay: initial rates of product formation ([…] h); Lineweaver-Burk plot
Format: biochemical, Agaricus bisporus
Conditions: O2 as oxidant; buffered at pH 7.0 (25 mM phosphate) and 20 °C in the general protocol; 0.01-1 mM protochelin; apo siderophore

Km: 430 µM
Compound: O=C(NCCCCNC(=O)[C@H](CCCCNC(=O)c1cccc(O)c1O)NC(=O)c1cccc(O)c1O)c1cccc(O)c1O [protochelin]
